What was measured:
Adenosylhomocysteinase [1] = target: T1, Adenosylhomocysteinase (Homo sapiens, UniProt P23526); assay: Inhibition of S-adenosyl-L-homocysteine hydrolase after 10 mins by scintillation counting
Target sequence in this assay (P23526 whole entry): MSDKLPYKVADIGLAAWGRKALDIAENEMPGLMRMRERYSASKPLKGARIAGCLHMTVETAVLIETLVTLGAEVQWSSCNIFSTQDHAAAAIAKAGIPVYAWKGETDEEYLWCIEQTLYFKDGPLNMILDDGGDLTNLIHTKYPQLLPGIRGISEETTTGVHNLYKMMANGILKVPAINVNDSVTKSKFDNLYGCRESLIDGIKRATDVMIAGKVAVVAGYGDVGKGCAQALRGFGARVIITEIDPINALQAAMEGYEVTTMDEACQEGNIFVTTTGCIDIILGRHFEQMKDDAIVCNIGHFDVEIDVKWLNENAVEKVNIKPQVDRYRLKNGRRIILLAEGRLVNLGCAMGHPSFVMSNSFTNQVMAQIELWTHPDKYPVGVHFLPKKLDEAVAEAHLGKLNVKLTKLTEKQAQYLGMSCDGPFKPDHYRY

Adenosylhomocysteinase [2] = target: T1, Adenosylhomocysteinase; assay: Inhibition of S-adenosyl-L-homocysteine hydrolase at 50 uM after 10 mins by scintillation counting
Target sequence in this assay (P23526 2-432 limits assumed): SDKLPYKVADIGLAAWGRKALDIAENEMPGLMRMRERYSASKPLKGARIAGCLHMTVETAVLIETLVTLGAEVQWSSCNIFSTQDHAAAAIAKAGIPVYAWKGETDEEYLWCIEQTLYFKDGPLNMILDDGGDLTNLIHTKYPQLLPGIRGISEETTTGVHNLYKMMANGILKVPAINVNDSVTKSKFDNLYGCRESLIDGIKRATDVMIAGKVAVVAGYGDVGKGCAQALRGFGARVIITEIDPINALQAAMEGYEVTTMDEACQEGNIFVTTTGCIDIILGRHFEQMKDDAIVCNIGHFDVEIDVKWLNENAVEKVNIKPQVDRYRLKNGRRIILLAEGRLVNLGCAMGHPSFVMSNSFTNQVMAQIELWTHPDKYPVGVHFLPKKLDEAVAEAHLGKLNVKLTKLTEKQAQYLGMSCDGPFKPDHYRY

Adenosylhomocysteinase [3] = target: T1, Adenosylhomocysteinase; assay: Inhibition of S-adenosyl-L-homocysteine hydrolase at 2 uM after 10 mins by scintillation counting
Target sequence in this assay (P23526 2-432 limits assumed): as above

Adenosylhomocysteinase [4] = target: Adenosylhomocysteinase (Plasmodium falciparum 3D7, UniProt P50250); assay: Inhibition of Plasmodium falciparum S-adenosyl-homocysteine hydrolase
Adenosylhomocysteinase [5] = target: T2, Adenosylhomocysteinase (Rattus norvegicus, UniProt P10760); assay: Inhibition of S-adenosyl-L-homocysteine hydrolase in intact rat hepatocytes; assay type: cell-based, Hepatocyte
T2 sequence (P10760 whole entry): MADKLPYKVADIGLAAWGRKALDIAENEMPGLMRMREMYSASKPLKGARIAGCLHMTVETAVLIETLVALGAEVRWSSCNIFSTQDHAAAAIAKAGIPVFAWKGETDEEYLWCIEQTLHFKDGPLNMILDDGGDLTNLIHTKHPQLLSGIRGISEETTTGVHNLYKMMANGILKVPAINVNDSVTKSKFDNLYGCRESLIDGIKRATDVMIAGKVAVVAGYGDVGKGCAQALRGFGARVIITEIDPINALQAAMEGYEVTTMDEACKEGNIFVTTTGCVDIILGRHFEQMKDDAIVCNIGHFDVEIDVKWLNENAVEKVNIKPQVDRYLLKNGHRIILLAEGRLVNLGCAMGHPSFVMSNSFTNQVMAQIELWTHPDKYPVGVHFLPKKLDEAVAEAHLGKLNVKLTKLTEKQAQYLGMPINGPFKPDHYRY

Chain of Adenosylhomocysteinase (Plasmodium falciparum 3D7, UniProt P50250) (P50250 whole entry): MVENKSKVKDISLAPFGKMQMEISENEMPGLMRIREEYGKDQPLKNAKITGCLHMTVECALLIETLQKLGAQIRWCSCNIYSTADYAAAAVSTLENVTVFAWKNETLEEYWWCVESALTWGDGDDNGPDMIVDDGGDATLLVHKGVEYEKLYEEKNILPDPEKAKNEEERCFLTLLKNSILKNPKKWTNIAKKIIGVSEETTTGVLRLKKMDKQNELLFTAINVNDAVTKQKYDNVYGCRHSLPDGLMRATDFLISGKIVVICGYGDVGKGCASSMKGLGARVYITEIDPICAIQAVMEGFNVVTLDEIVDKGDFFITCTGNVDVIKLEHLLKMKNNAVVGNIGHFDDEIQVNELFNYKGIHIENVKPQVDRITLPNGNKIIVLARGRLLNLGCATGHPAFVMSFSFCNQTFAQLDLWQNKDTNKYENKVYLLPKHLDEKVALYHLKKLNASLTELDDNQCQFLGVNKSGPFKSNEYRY

Row | SMILES | IC50 (Adenosylhomocysteinase [1]) [nM] | inhibition (Adenosylhomocysteinase [2]) [%] | inhibition (Adenosylhomocysteinase [3]) [%] | other results
1 | Nc1ncnc2c1ncn2Cc1cc(OCC2CCCCC2)cc(O)c1O | 400 | – | – | –
2 | Nc1ncnc2c1ncn2Cc1cc(O)c(O)c(OCc2ccccc2)c1 | – | 70 | 12 | –
3 | C=C1CCC[C@H]2[C@](C)(CC3=C(O)C(=O)C=C(OC)C3=O)[C@@H](C)CC[C@]12C [ILIMAQUINONE] | 40000 | – | – | –
4 | Nc1ncnc2c1ncn2[C@@H]1C[C@H](O)[C@@H](O)[C@H]1O [NORARISTEROMYCIN] | – | – | – | IC50 (Adenosylhomocysteinase [4]): 1100 nM
5 | Nc1ncnc2c1ncn2C[C@@H](O)[C@@H](O)C(=O)O [ERITADENINE] | – | – | – | IC50 (Adenosylhomocysteinase [5]): 30 nM
6 | C=C1[C@H](OC(=O)CCCCCNC(=O)OC(C)(C)C)CC[C@H]2[C@](C)(CC3=C(Cl)C(=O)C=C(OC)C3=O)[C@@H](C)CC[C@]12C | > 250000 | – | – | –

Now from value to molecule, other results behind:

Row | IC50 (Adenosylhomocysteinase [1]) [nM] | inhibition (Adenosylhomocysteinase [2]) [%] | inhibition (Adenosylhomocysteinase [3]) [%] | SMILES | other results
7 | < 20000 | – | – | COC1=CC(=O)C(O)=C(C[C@@]2(C)[C@@H]3CCC[C@H](COC(=O)CCCCCNC(=O)OC(C)(C)C)[C@@]3(C)CC[C@@H]2C)C1=O | –
8 | – | 47 | 12 | CCCCCOc1cc(Cn2cnc3c(N)ncnc32)cc(O)c1O | –
9 | – | 74 | 17 | Nc1ncnc2c1ncn2Cc1cc(O)c(O)c(OCC2CCCCC2)c1 | –
